This note sets out measurements from US20180320177A1, “COMPOSITIONS AND METHODS FOR THE TREATMENT OF LIVER FIBROSIS” (UNIVERSITY OF CONNECTICUT, priority 2015, published 2018).

For series [1], the system named is TIC cells. Put plainly: TIC cell migration and invasion assays. It counts as cell-based. The conditions noted are these: TIC cells (FIG. 7C, 7D). Here is the method:
Cell Lines The LX-2 human stellate cell line was maintained in Dulbecco's Modified Eagle's Medium (DMEM) supplemented with 2% fetal bovine serum (FBS), 100 IU/ml penicillin, and 100 μg/ml streptomycin. Human hepatocellular carcinoma (HCC) MHCC97H cells were maintained in DMEM supplemented with 10% FBS, 100 IU/ml penicillin, and 100 μg/ml streptomycin, 1 mM HEPES, 1 mM sodium pyruvate, 2 mM L-glutamine. Tumor-initiating (TIC) cells were obtained from Dr. Hidekazu Tsukamoto at University of Southern California and were maintained in 1:1 DMEM:F12 supplement with 100 U/ml penicillin and 100 μg/ml streptomycin, 2 mM glutamine, 20 ng/ml mouse EGF, 10 nM dexamethasone, 1× embryomax nucleotides. All the cells were maintained at 37° C. humidified atmosphere with 5% CO2. TIC cells were infected with Hmgb2 shRNA lentivirus for 48 hr, and treated with 500 ng/ml puromycin for 2 weeks. The stable cells were used for migration and invasion assay, as well as western blot.
Cell Migration and Invasion: Cell migration and invasion assays were performed as described in the art. Briefly, control TIC cells or TIC cells with a stable knockdown of HMGB2 were infected with AAV8-Null or AAV-8-HMGB2 for 48 hr. The cells were then serum starved for 24 hr and 5×10^4 cells were seeded on transwell inserts with 8 μm pore size (Culterx® 96 well cell migration assay, cat# 3465-095-K). Cells were allowed to migrate for 16 hr. Non-migrating cells were removed from the insert with a cotton swab. The migrated cells were fixed for 10 min (3.7% v/v formaldehyde in PBS), and stained with 0.1% crystal violet for 15 min. Cells were washed with PBS and pictures were taken with Microfire/Qcam CCD Olympus 1×81 microscope. Cells stained with crystal violet were counted and then lysed with 1% SDS for 30 min and the absorbance was measured at 570 nm. Cell invasion assays were performed similarly to migration assays, except that the cells were seeded on pre-coated inserts with BME solution (Cultrex® 96 well BME cell invasion Assay, cat# 3455-096-K). Invaded cells were fixed, stained and the absorbance was measured as in the migration assay.

Series [2] concerns CGR8 ES cells. Put plainly: CGR8 ES cell differentiation and EB formation. It is filed as cell-based, mouse. Here is the method: Cell culture, Cell transfection:HEK293T, Hela, Hep3B and MHCC97H cells were cultured and transfected using X-tremeGENE™ HP DNA transfection reagent (Roche) as described previously. CGR8 ES cells were cultured on 0.1% gelatin coated tissue-culture dish in knockout DMEM medium containing 15% ES qualified-Fetal Bovine Serum, 2 mM L-glutamin, 0.1 mM NEAA, 0.1 mM β-mercaptoethanol, 50 μg/ml penicillin-streptomycin and 10 ng/ml Leukemia inhibitory factor (LIF). TIC cells were cultured in DMEM-F12 medium containing Embryomax nucleotides, 2 mM L-glutamin, 0.1 mM NEAA, 20 ng/ml mouse EGF, 50 μg/ml penicillin-streptomycin and […].
ES cells EB formation and TICs spheroid assay: CGR8 ES cells were trypsinized into single cells and cultured in ES medium devoid of LIF in hanging drops (900 cells per EB) for 2 d and transferred to ultralow attachment plate for a further 2 d suspension culture. Then, EBs were plated onto gelatin coated tissue-culture plate for further 7 d spontaneously differentiation.
FIGS. 10A-C show the establishment of CGR8 cell culture and differentiation. […] Undifferentiated feeder-free CGR8 ES cells were maintained on 0.1% gelatin coated 6-cm tissue-culture dish in ES medium containing 10 ng/ml Leukemia inhibitory factor (LIF). For EB formation, CGR8 ES cells were trypsinized into single cells and cultured in ES medium devoid of LIF in hanging drops (900 cells per EB) for 2 d and in suspension culture for a further 2 d. Then, EBs were transferred onto gelatin coated tissue-culture plate for further spontaneously differentiation. ES withdraw LIF 2d, CGR8 ES cells were cultured in ES medium devoid of LIF for 2 d.
FIG. 14A is Left, Western blot of HMGB2 and SOX2 protein in HEK293T cells transfected with 0.5 μg […] expression plasmid and 0, 1 or 2 μg Flag-HMGB2 expression plasmid. Right, Western blot of HMGB2 and OCT4 protein in HEK293T cells transfected with 0.5 μg HA-OCT4 expression plasmid and 0, 1 or 2 μg Flag-HMGB2 expression plasmid. […] CGR8 cells were lysed, co-immunoprecipitated with OCT4 antibody, followed by Western blot with HMGB2 or OCT4 antibodies. FIG. 14 C is a luciferase reporter assay. HepG2 cells were infected with AAV8-GFP or AAV8-HMGB2 24 hrs before being transfected with 6*OS luciferase reporter and OCT4, SOX2 expression plasmids alone or in combination.

For the molecule `CC1(C)Oc2cc(O)ccc2C2C1=CCn1c(=O)n(-c3ccccc3)c(=O)n12` (stereo not shown) [ICM, inflachromene], in series [1], the cell invasion result is “markedly blocks” and the cell migration result is on record as “markedly blocks”. In addition, in series [2] (5 μM ICM versus DMSO (FIG. 14E)), the CGR8 differentiation result was “induces CGR8 differentiation”.
With “shHMGB2: small hairpin RNA against HMGB2 (SEQ ID NO: 8), delivered by AAV or lentivirus (CCGGGCTCAACATTAGCTTCAGTATCTCGAGATACTGAAGCTAATGTTGAGCTTTTTG)”, in series [1], the cell invasion result is “decreased” and the cell migration result is on record as “decreased”. Besides, the “spheroid formation of CGR8 cells” value in series [2] (EB formation, AAV8 infection versus AAV8-Null (FIG. 14D)) is given as “decreases spheroid formation”. Also, in series [2] (knockdown of HMGB2 (summary)), the CGR8 differentiation entry is “promotes CGR8 differentiation”.
